# Read-outs that look alike come from different tables or passages of the source.
# How the values were obtained:
# [1] = Solubility of sample preparation upon visual inspection; format: physicochemical
# Experimental: Briefly, 12.5 mg of the herbal composition 2 contents was weighed, dissolved in 312.5 μl of DMSO and the volume was made up to 10 ml with 100% methanol. Further dilutions were done in 100% methanol containing 3.125% of DMSO. […] For calculation purposes the sample was considered to be 100% soluble.
# Gallic acid (reference inhibitor) preparation. For gallic acid, a stock of 200 μg/ml was prepared by dissolving 2 mg of gallic acid in 10 ml of methanol. Further dilutions were made as required with methanol.
# Briefly, 29.73 mg of the Herbal composition 2 contents was weighed, dissolved in 500 μl of DMSO and the volume was made up to 25 ml with phosphate buffered saline. […] The sample was filtered and the filtrate was used for the assay. For calculation purposes the sample was considered to be 100% soluble.
# Trolox (reference inhibitor) preparation, For trolox, a stock of […] was prepared by dissolving 2 mg of trolox in 2 ml of phosphate buffered saline. […] Further dilutions were made as required with phosphate buffered saline.
# Briefly, 8 mg of the Herbal composition 2 contents was weighed, dissolved in 200 μl of DMSO and the volume was made up to 2 ml with 0.1M phosphate buffer pH 7.4. Further dilutions were done in 0.1M phosphate buffer pH 7.4 containing 10% of DMSO. […] For calculation purposes the sample was considered to be 100% soluble.
# (§1) Gallic acid (reference inhibitor) preparation, For gallic acid, a stock of 500 μg/ml was prepared by dissolving 5 mg of gallic acid in 10 ml of 0.1M phosphate buffer pH 7.4. […] The assay was carried out as per the method of Yen et al. with modifications. In brief, the reaction mixture contained 0.1M phosphate buffer pH 7.4/vehicle buffer/positive control/test sample of various concentrations, 292.5 μM NADH, 37.5 μM NBT and 15 μM PMS. The plate was mixed and incubated at 25° C. for 5 minutes. The absorbance was measured at 560 nm in a micro-plate reader (Versamax, Molecular devices). A control reaction was carried out without test samples.
# [2] = DPPH radical scavenging assay (Experiment 2); format: biochemical
# Experimental: Gallic acid (reference inhibitor) preparation. For gallic acid, a stock of 200 μg/ml was prepared by dissolving 2 mg of gallic acid in 10 ml of methanol. Further dilutions were made as required with methanol. […] In brief, the total reaction mixture contained methanol/vehicle buffer/positive control/various concentrations of test solution and DPPH to a final concentration of 0.132 mM. The reaction mixture was incubated at 25° C. for 20 minutes. Following incubation the absorbance was read at 510 nm using a micro-well plate reader (Molecular devices Versamax microplate reader). A control reaction was carried out without test samples. The % inhibition values were calculated as follows: [formula] Where, Absorbance=Final Absorbance−Initial absorbance. IC50 was calculated using log-probit analysis.
# [3] = Super oxide radical scavenging assay (NADH/NBT/PMS); format: biochemical
# Experimental: as §1, with “samples. The % inhibition values were calculated as follows: [formula] IC50 was calculated using log-probit analysis.” for “samples.”
# [4] = system: Low Density Lipoproteins, Human Plasma; test: LDL oxidation in a cell-free system, Cu2+ induced (Experiment 10); format: biochemical; conditions: reference compounds, FIG. 6B
# rat pancreatic islets = test: Insulin secretion in rat pancreatic islets (ELISA); format: cell-based; conditions: 3 μM
# Source text: The objective of the experiment is to evaluate the effect of herbal supplement test composition on insulin secretion in rat pancreatic islets. Insulin, a peptide hormone, is secreted by pancreatic β-cells and is a key regulator in glucose homeostasis. Insulin deficiency leads to insulin-dependent (type 1) diabetes, whereas resistance to insulin action is common in non-insulin-dependent diabetes (type 2), obesity, and endocrine dysfunctions. The pancreatic β-cells are known to be sensitive to the glucose concentration in the blood. When the blood glucose levels are high they secrete insulin into the blood; when the levels are low they cease their secretion of this hormone into the general circulation. Insulin released by the β-cells is the main regulator of glucose levels.
# Firstly, the herbal supplement composition is dissolved in DMSO with sonication for 15 min and centrifuged at 10,000 rpm for 10 minutes at room temperature to remove insoluble debris. Glyburide (CAS: 10238-21-8) and Glucose are used as reference compounds in the present experiment. Glyburide (CAS: 10238-21-8) is dissolved in DMSO and used at 3 μM. […]
# At the end of the 1 hr incubation period, 20 μl of supernatant is gently transferred to another plate. Insulin secretion is measured using the Mercodia Rat Insulin ELISA kit according to the manufacturer's protocol. […]
# Caco-2 cells = test: NBD-cholesterol uptake in Caco-2 cells; format: cell-based, human; conditions: positive control, 1.25, 2.5, 5 and 10 μM, 48 hrs
# Experimental: The objective of the experiment is to evaluate the effect of the supplement composition on cholesterol uptake in Caco-2 (human epithelial colorectal adenocarcinoma) cells. Cholesterol is both an important structural component of cell membranes and an early intermediate in hormone and bile acid biosynthesis. The supplement composition is dissolved in Dimethyl Sulphoxide (DMSO) with sonication for 15 min and centrifuged at 10,000 rpm for 10 min at room temperature to remove insoluble debris. The reference compound used in the present experiment is U-18666A (CAS: 3039-71-2), which increases cholesterol uptake by inhibiting trafficking of synthesized cholesterol. The U-18666A is dissolved in DMSO and used at a concentration of about 1.25, 2.5, 5 and 10 μM. Moreover, U-18666A is used as a positive control. The reagent used is 3-hexanoyl-NBD Cholesterol. Caco-2 cells are maintained at 60-70% confluence in complete growth medium EMEM containing 20% FBS and required antibiotic. For the assay, cells are harvested using 0.25% trypsin EDTA. The trypsinized cells are centrifuged at 1200 rpm for 5 minutes and re-suspended in growth medium. […] At the end of the incubation period, the plates are washed twice with PBS and cholesterol uptake is calculated by measuring NBD cholesterol fluorescence (Ex 485 nm, Em 535 nm). […]
# [5] = DPPH radical scavenging activity, cell-free assay (Experiment 7); format: biochemical; conditions: 200 μM DPPH, 30 min
# Experimental: The objective of this experiment is to evaluate the effect of the supplement concentration on DPPH radical scavenging activity in a cell-free assay. The supplement concentration is dissolved in DMSO with sonication for 15 min and centrifuged at 10,000 rpm for 10 min at room temperature to remove insoluble debris. 2,2-Diphenyl-1-picrylhydrazyl (DPPH) is used as a reagent for this experiment. DPPH is an antioxidant reagent that is used as a free radical trap or scavenger. The color of DPPH changes from red to yellow as its scavenging activity increases. This is measured by absorbance at 517 nm. The reference compound used is Trolox (CAS: 53188-07-1). The Trolox is dissolved in DMSO and used at different concentrations. Trolox is used as positive control.
# A reaction mix is made in 200 μL methanol containing 200 μM of DPPH and various concentrations of the supplement. The mixture is mixed gently with a pipette and left to stand for 30 min in the dark, after which absorbance readings are taken at 517 nm. The change in DPPH absorbance is calculated relative to the absorbance of DPPH alone i.e. without the supplement. The DMSO concentration in the assay is maintained at less than equal to 1.0%. The data is fit to a non-linear regression using Graph pad Prism (version 5.0). […]
# LDL oxidation = LDL oxidation inhibition assay, human serum, copper sulphate (Experiment 3); format: biochemical
# Experimental: The sample was filtered and the filtrate was used for the assay. […] Trolox (reference inhibitor) preparation, For trolox, a stock of […] was prepared by dissolving 2 mg of trolox in 2 ml of phosphate buffered saline. […] Further dilutions were made as required with phosphate buffered saline. The assay was carried out as per the method of Hodgson et al with modifications. In brief, the reaction mixture contained phosphate buffered saline/vehicle buffer/positive control/test sample of various concentrations and serum from fasting human. Copper sulphate solution was added to the reaction mixture to start the reaction. The reaction mix was mixed and read immediately at 234 nm using a UV-VIS spectrophotometer, for the initial reading, and incubated. After the completion of incubation period, the final absorbance was measured at 234 nm. A control reaction was carried out without test samples. The % inhibition values were calculated as follows: [formula] Where, Absorbance=Final Absorbance−Initial absorbance. IC50 was calculated using log-probit analysis.
structure (smiles),measurement,setting,value
"O=C(O)c1cc(O)c(O)c(O)c1 [Gallic Acid, Gallic acid]",Solubility upon visual inspection,[1],approximately 100%
same,Solubility upon visual inspection,[1]; pH 7.4,approximately 100%
same,"% Inhibition (Mean ± SEM), DPPH",[2]; 0.5 μg/ml,8.71 ± 1.12%
same,"% Inhibition (Mean ± SEM), DPPH",[2]; 1.5 μg/ml,32.14 ± 2.42%
same,"% Inhibition (Mean ± SEM), DPPH",[2]; 2.5 μg/ml,60.58 ± 2.84%
same,"% Inhibition (Mean ± SEM), DPPH",[2]; 5 μg/ml,80.52 ± 0.57%
same,"IC50 (95% Confidence Interval), DPPH radical scavenging",[2]; log-probit analysis,2.09 µg/mL
same,"% Inhibition (Mean ± SEM), super oxide radical",[3]; 5 μg/ml,27.00 ± 3.37%
same,"% Inhibition (Mean ± SEM), super oxide radical",[3]; 10 μg/ml,32.89 ± 3.26%
same,"% Inhibition (Mean ± SEM), super oxide radical",[3]; 20 μg/ml,47.80 ± 4.26%
same,"% Inhibition (Mean ± SEM), super oxide radical",[3]; 40 μg/ml,69.50 ± 1.00%
same,"% Inhibition (Mean ± SEM), super oxide radical",[3]; 80 μg/ml,83.67 ± 0.00%
same,"IC50 (95% Confidence Interval), super oxide radical scavenging",[3]; log-probit analysis,17.86 µg/mL
O=C1O[C@H]([C@@H](O)CO)C(O)=C1O [ascorbic acid],"Inhibition of LDL oxidation, in words",[4],significant inhibition
COc1ccc(Cl)cc1C(=O)NCCc1ccc(S(=O)(=O)NC(=O)NC2CCCCC2)cc1 [Glyburide],"Insulin secretion, effect in words",rat pancreatic islets,significant increase
CCN(CC)CCO[C@H]1CC[C@@]2(C)C(=CC[C@@H]3[C@@H]2CC[C@]2(C)C(=O)CC[C@@H]32)C1 [U-18666A],Increase in NBD-cholesterol uptake,Caco-2 cells,up to 25%
Cc1c(C)c2c(c(C)c1O)CCC(C)(C(=O)O)O2 (centres unmarked) [Trolox],Solubility upon visual inspection,[1],approximately 100%
same,"EC50, DPPH scavenging activity",[5],28 µg/mL
same,"% Inhibition (Mean ± SEM), LDL oxidation",LDL oxidation; 0.25 μM,48.80 ± 6.21%
same,"% Inhibition (Mean ± SEM), LDL oxidation",LDL oxidation; 0.5 μM,73.07 ± 3.39%
same,"% Inhibition (Mean ± SEM), LDL oxidation",LDL oxidation; 1.0 μM,76.33 ± 0.07%
same,"% Inhibition (Mean ± SEM), LDL oxidation",LDL oxidation; 2.0 μM,79.04 ± 0.64%
same,IC50,"LDL oxidation; log-probit analysis, read-out: IC50 (95% Confidence Interval), LDL oxidation inhibition",180 nM
